In patent US20100286131A1, “VIRAL POLYMERASE INHIBITORS” (BOEHRINGER INGELHEIM INTERNATIONAL GMBH, priority 2007, published 2010):

system: cells expressing a stable subgenomic HCV replicon; assay: Cell-based luciferase reporter HCV RNA replication assay; settings: Hepatitis C virus, inhibition of HCV RNA replication, assay of WO 2005/028501
Experimental: Cell-Based Luciferase Reporter HCV RNA Replication Assay
Compounds of the invention are tested for activity as inhibitors of hepatitis C virus RNA replication in cells expressing a stable subgenomic HCV replicon, using the assay described in WO 2005/028501, herein incorporated by reference. Table 4 lists representative compounds of the invention with their EC50 values and a comparative non-fluorinated analog wherein the presence of the fluorine atom provided an unexpected improvement in cell-based potency.

Row | Structure (SMILES) | EC50
1 | Cc1ccc(OCc2cnc(Oc3ccc(N(C(=O)[C@H]4CC[C@H](C)CC4)C(C)C)c(C(=O)O)c3)c(C(F)(F)F)c2)c(C)n1 | 0.0865 µM
2 | CC(C)N(c1ccc(Cc2ccc(Cn3cccc4ccnc3-4)cc2C(F)(F)F)cc1C(=O)O)C(=O)[C@H]1CC[C@H](C)CC1 | 0.208 µM
3 | CC(C)N(c1ccc(Oc2ncc(Cn3cnnc3)cc2C(F)(F)F)cc1C(=O)O)C(=O)[C@H]1CC[C@H](C)CC1 | 0.16 µM
4 | CC(C)N(c1ccc(Oc2ncc(CN3CCC(F)(F)C3)cc2C(F)(F)F)cc1C(=O)O)C(=O)[C@H]1CC[C@H](C)CC1 | 0.089 µM
5 | CC(C)N(c1ccc(Oc2ccc(Cn3ccc4cccnc43)cc2C(F)(F)F)cc1C(=O)O)C(=O)[C@H]1CC[C@H](C)CC1 | 0.265 µM
6 | CC(C)N(c1cc(F)c(Oc2ncc(Cn3cnnc3)cc2C(F)(F)F)cc1C(=O)O)C(=O)[C@H]1CC[C@H](C)CC1 [Compound 1042] | 0.047 µM
7 | Cc1ccc(OCc2cnc(Oc3cc(C(=O)O)c(N(C(=O)[C@H]4CC[C@H](C)CC4)C(C)C)cc3F)c(C(F)(F)F)c2)c(C)n1 [Compound 1058] | 0.0395 µM
8 | CC(C)N(c1cc(F)c(Oc2ncc(CN3CCC(F)(F)C3)cc2C(F)(F)F)cc1C(=O)O)C(=O)[C@H]1CC[C@H](C)CC1 [Compound 1101] | 0.0415 µM
9 | CC(C)N(c1cc(F)c(Oc2ccc(Cn3cccc4ccnc3-4)cc2C(F)(F)F)cc1C(=O)O)C(=O)[C@H]1CC[C@H](C)CC1 [Compound 3016] | 0.0725 µM
10 | CC(C)N(c1cc(F)c(Oc2ccc(Cn3ccc4cccnc43)cc2C(F)(F)F)cc1C(=O)O)C(=O)[C@H]1CC[C@H](C)CC1 [Compound 3033] | 0.145 µM

system: not listed separately; assay: In vitro metabolism in male human liver microsomes (HLM); type: in vitro ADME; settings: 1 mg microsomal protein, 2.5 mM NADPH, 2 μM compound, pH 7.4, 37° C.
Experimental: Male human liver microsomes are purchased from Gentest. The pool consisted of microsomes from several donors. The in vitro metabolism in liver microsomes is carried out in a reaction media containing 1 mg of microsomal protein, 2.5 mM NADPH and 2 μM compound in a total volume of 1 ml of 0.066 M Tris buffer, pH 7.4 for 20 minutes at 37° C. Reactions are initiated by the addition of NADPH and terminated at the appropriate times by quenching with an equal volume of a 1:1 mixture of acetonitrile:methanol.

Row | HLM | Structure (SMILES)
11 | 69 min | CC(C)N(c1ccc(Oc2ncccc2C(F)(F)F)cc1C(=O)O)C(=O)[C@H]1CC[C@H](C)CC1
12 | 29 min | Cc1nc(Cc2ccc(Oc3ccc(N(C(=O)[C@H]4CC[C@H](C)CC4)C(C)C)c(C(=O)O)c3)c(C(F)(F)F)c2)cs1
13 | 136 min | CC(C)N(c1cc(F)c(Oc2ncccc2C(F)(F)F)cc1C(=O)O)C(=O)[C@H]1CC[C@H](C)CC1 [Compound 1011]
14 | 129 min | Cc1nc(Cc2cnc(Oc3cc(C(=O)O)c(N(C(=O)[C@H]4CC[C@H](C)CC4)C(C)C)cc3F)c(C(F)(F)F)c2)cs1 [Compound 1072]
